Measured values reported in the Deep4Chem optical property database.
Each block holds one molecule with its values, some of them ahead of it.

Test: solvent given as SMILES

Compound: CC(C)(C)c1ccc(-c2nc(-c3ccc(C(C)(C)C)cc3)nc(-c3ccc(-n4c5ccccc5c5c6oc7ccccc7c6ccc54)c(C#N)c3)n2)cc1
absorption maximum (in C1CCOC1): 379.46 nm

Compound: CCn1c2ccccc2c2cc(-c3cc(-c4ccc5c(c4)c4ccccc4n5CC)nc(S(C)(=O)=O)n3)ccc21
absorption maximum (in C1CCOC1): 381 nm
absorption maximum (in CCOC(C)=O): 378 nm
absorption maximum (in CN(C)C=O): 384 nm
absorption maximum (in Cc1ccccc1): 382 nm
absorption maximum (in ClCCl): 384 nm

Compound: CCC1=C(C)c2cc3ccccc3c(=O)n2C1=O
absorption maximum (in CC#N): 369 nm
absorption maximum (in CCCCCC): 366 nm
absorption maximum (in CO): 370 nm
absorption maximum (in CS(C)=O): 373 nm
absorption maximum (in ClC(Cl)Cl): 371 nm

Compound: c1ccc(C(=C(c2ccccc2)c2ccc(-c3ccc(-c4nc5c(-c6ccc(-c7ccc(C(=C(c8ccccc8)c8ccccc8)c8ccccc8)cc7)cc6)sc(-c6ccc(-c7ccc(C(=C(c8ccccc8)c8ccccc8)c8ccccc8)cc7)cc6)c5nc4-c4ccc(-c5ccc(C(=C(c6ccccc6)c6ccccc6)c6ccccc6)cc5)cc4)cc3)cc2)c2ccccc2)cc1
absorption maximum (in Cc1ccccc1): 530 nm
absorption maximum (in ClCCl): 520 nm

Compound: c1ccc(-c2cc3cccc[n+]3[b-]3c(-c4cccc5[b-]4[n+]4ccccc4cc5-c4ccccc4)cccc32)cc1
absorption maximum (in C1CCCCC1): 449 nm

Compound: F[B-]1(F)OC(c2ccc(N3CCCC3)cc2)=Cc2cccc[n+]21
absorption maximum (in ClC(Cl)Cl): 438 nm

Compound: Cc1sc(Cl)cc1-c1nc(-c2ccc(Cl)cc2)[nH]c1-c1cc(Cl)sc1C
absorption maximum (in CC#N): 309 nm

Compound: CN(C)c1ccc(C2=Cc3c4ccccc4c4ccccc4[n+]3[B-](F)(F)O2)cc1
absorption maximum (in C1CCOC1): 478 nm
absorption maximum (in C1COCCO1): 477 nm
absorption maximum (in CC1CCCCC1): 474 nm
absorption maximum (in CC#N): 476 nm
absorption maximum (in CCOC(C)=O): 475 nm
absorption maximum (in CCOCC): 472 nm
absorption maximum (in CN(C)C=O): 484 nm
absorption maximum (in CO): 475 nm
absorption maximum (in COC(C)=O): 477 nm
absorption maximum (in ClC(Cl)Cl): 483 nm

Compound: CC(C)(C)c1ccc(-c2nc3c4ccc(-c5cc6ccccc6c6ccccc56)cc4c4cc(-c5cc6ccccc6c6ccccc56)ccc4c3n2-c2ccc(C(C)(C)C)cc2)cc1
absorption maximum (in C1CCOC1): 325 nm
absorption maximum (in C1COCCO1): 325 nm
absorption maximum (in CC#N): 324 nm
absorption maximum (in CCCCCC): 325 nm
absorption maximum (in CCCCOCCCC): 326 nm
absorption maximum (in CCN(CC)CC): 325 nm
absorption maximum (in CCOC(C)=O): 324 nm
absorption maximum (in CCOCC): 234 nm
absorption maximum (in CN(C)C=O): 328 nm
absorption maximum (in Cc1ccccc1): 327 nm
absorption maximum (in ClC=C(Cl)Cl): 327 nm
absorption maximum (in ClCCl): 328 nm

Compound: Cc1cc(C)c(B(c2ccc(-n3c4ccccc4c4ccccc43)cc2)c2c(C)cc(C)cc2C)c(C)c1
absorption maximum (in Cc1ccccc1): 360 nm

Compound: CC(N)=O
absorption maximum (in O): 220 nm

Compound: c1ccc(-c2nc(-c3ccccc3)nc(-c3ccc(-n4c5ccccc5c5ccccc54)cc3)n2)cc1
absorption maximum (in Cc1ccccc1): 364 nm

Compound: c1ccc(-c2nc(-c3ccc(N4c5ccccc5C(c5ccccc5)(c5ccccc5)c5ccccc54)cc3)cc(-c3ccccn3)n2)cc1
absorption maximum (in Cc1ccccc1): 371.33 nm

Compound: Cc1c(COC(=O)Cc2ccccc2)n2c(OCC(=O)Cc3ccccc3)c(C)c(=O)n2c1=O
absorption maximum (in CCO): 379 nm

Compound: CO[Si](c1c2ccccc2cc2ccccc12)(c1c2ccccc2cc2ccccc12)c1c2ccccc2cc2ccccc12
absorption maximum (in ClC(Cl)Cl): 401 nm

Compound: N#Cc1ccc(C#Cc2ccc(C#Cc3ccc(C#Cc4ccccc4C#N)cc3C#N)cc2C#N)cc1
absorption maximum (in C1CCOC1): 356 nm
absorption maximum (in CC#N): 352 nm
absorption maximum (in CN(C)C=O): 357 nm
absorption maximum (in ClC(Cl)Cl): 357 nm
absorption maximum (in c1ccccc1): 358 nm

Compound: CC1=CC(/C=C/c2ccc(N(C)C)cc2)=[N+]2C1=C(c1ccccc1)c1c(C)cc(/C=C/c3ccc(N(C)C)cc3)n1[B-]2(F)F
absorption maximum (in ClC(Cl)Cl): 700 nm

Compound: CCN(CC)c1ccc2cc(-c3csc(N)c3C#N)c(=O)oc2c1
absorption maximum (in C1CCOC1): 403 nm
absorption maximum (in CO): 406 nm
absorption maximum (in CS(C)=O): 406 nm
absorption maximum (in Cc1ccccc1): 403 nm
absorption maximum (in ClCCl): 407 nm

Compound: [NH3+]C(Cc1c[nH]c2ccccc12)C(=O)[O-] (stereo unspecified)
absorption maximum (in O): 277 nm

Compound: CCC1=C(C)C2=C(c3cc(C(=O)Cl)cc(C(=O)Cl)c3)c3c(C)c(CC)c(C)n3[B-](F)(F)[N+]2=C1C
absorption maximum (in C1CCOC1): 528 nm
absorption maximum (in CC#N): 524 nm
absorption maximum (in CN(C)C=O): 529 nm
absorption maximum (in Cc1ccccc1): 531 nm
absorption maximum (in ClC(Cl)Cl): 532 nm

Compound: N#Cc1c(-n2c3ccccc3c3ccccc32)c(-n2c3ccccc3c3ccccc32)c(-n2c3ccccc3c3ccccc32)c(-n2c3ccccc3c3ccccc32)c1-n1c2ccccc2c2ccccc21
absorption maximum (in Cc1ccccc1): 402.99 nm

Compound: O=[N+]([O-])c1ccc([N+]2=Cc3ccc4c5c(ccc4c3O[B-]2(c2c(F)c(F)c(F)c(F)c2F)c2c(F)c(F)c(F)c(F)c2F)C=[N+](c2ccc([N+](=O)[O-])cc2)[B-](c2c(F)c(F)c(F)c(F)c2F)(c2c(F)c(F)c(F)c(F)c2F)O5)cc1
absorption maximum (in C1CCOC1): 525 nm
absorption maximum (in CC#N): 513 nm
absorption maximum (in CC(C)=O): 515 nm
absorption maximum (in Cc1ccccc1): 549 nm
absorption maximum (in ClCCl): 553 nm

Compound: CCCCC1(CCCC)c2cc(-c3ccc(C=C4C(=O)c5ccccc5C4=O)cc3)ccc2-c2ccc(-c3ccc(C=C4C(=O)c5ccccc5C4=O)cc3)cc21
absorption maximum (in C1CCOC1): 438 nm
absorption maximum (in CC(C)=O): 435 nm
absorption maximum (in CCCCCC): 418 nm
absorption maximum (in CS(C)=O): 445 nm
absorption maximum (in Cc1ccccc1): 437 nm
absorption maximum (in ClC(Cl)Cl): 445 nm

Compound: C(#Cc1nc2ccccc2s1)c1ccc(N(c2ccccc2)c2ccccc2)cc1
absorption maximum (in Cc1ccccc1): 388 nm

Next, values leading:

absorption maximum (in C1CCOC1): 702 nm
absorption maximum (in CC#N): 694 nm
absorption maximum (in ClCCl): 703 nm
Compound: CCC(CC)COC1=CC2=C3c4cc(OCC(CC)CC)c(-c5ccccc5)n4[B-](F)(F)[n+]4c3n(c3cc(C(C)(C)C)ccc34)[B-](F)(F)[N+]2=C1c1ccccc1

absorption maximum (in ClCCl): 648 nm
Compound: CC(C)c1cccc(C(C)C)c1N1C(=O)c2ccc3cc4c(cc5ccc6c7c(ccc4c57)C(=O)N(c4c(C(C)C)cccc4C(C)C)C6=O)c4ccc(c2c34)C1=O

absorption maximum (in CO): 284 nm
Compound: Cc1ccc(-c2nc(-c3cc([N+](=O)[O-])ccc3O)[nH]c2-c2ccc(C)cc2)cc1

absorption maximum (in C1CCCCC1): 586.5 nm
absorption maximum (in CCOC(C)=O): 582 nm
absorption maximum (in CO): 580.5 nm
Compound: Cc1ccccc1C1=C2C=c3c(oc4ccccc34)=[N+]2[B-](F)(F)n2c1cc1c3ccccc3oc12

absorption maximum (in O): 296 nm
Compound: CC(C)(C)c1cccc2c(O)cccc12

absorption maximum (in CS(C)=O): 406 nm
absorption maximum (in O): 406 nm
Compound: CCCCCn1c2ccc(S(=O)(=O)O)cc2c(=O)c2cc(S(=O)(=O)O)ccc21

absorption maximum (in CC#N): 324 nm
Compound: C(=C\c1cc[n+](Cc2ccccc2)cc1)/c1cc[n+](Cc2ccccc2)cc1

absorption maximum (in ClCCl): 370 nm
Compound: COc1cccc2cc(C)c3c4ccccc4n(C)c3c12

absorption maximum (in CS(C)=O): 330 nm
Compound: Fc1ccc2c(c1)sc1nc(-c3ccccc3)sc12

absorption maximum (in CO): 457 nm
Compound: BrC1=CN2C[n+]3cc(Br)c4ccccc4c3N=C2c2ccccc21

absorption maximum (in C1CCOC1): 664 nm
absorption maximum (in CS(C)=O): 666 nm
absorption maximum (in ClCCl): 664 nm
Compound: COCCOCCOCCOc1ccc(/C=C/C2=[N+]3C(=C(c4cc(OC)cc(OC)c4)c4c(C)c(I)c(/C=C/c5ccc(OCCOCCOCCOC)cc5)n4[B-]3(F)F)C(C)=C2I)cc1

absorption maximum (in CCCCCC): 445 nm
Compound: CC(C)[Si](C#Cc1c2ccccc2c(C#C[Si](C(C)C)(C(C)C)C(C)C)c2nc3c(nc12)C1c2ccccc2C3c2ccccc21)(C(C)C)C(C)C

absorption maximum (in ClCCl): 565 nm
Compound: COc1cccc(OC)c1-c1c2ccc(=[N+]3CCCCC3)cc-2oc2cc(N3CCCCC3)ccc12

absorption maximum (in ClC(Cl)Cl): 562 nm
Compound: F[B-]1(F)n2cccc2C(c2ccccc2)=C2C=CC(c3ccc(OC4=[N+]5C(=C(c6ccccc6)c6cc(Br)c(Br)n6[B-]5(F)F)C=C4Br)cc3)=[N+]21

absorption maximum (in ClCCl): 445 nm
Compound: COc1ccc2c(c1)CCC1=C(C#Cc3ccc(Cl)cc3)O[B-](F)(F)[O+]=C12

absorption maximum (in ClCCl): 680 nm
Compound: CCOC(=O)COc1ccc(/C=C/C2=[N+]3C(=Cc4c5ccccc5c(-c5[nH]c(C)cc5C)n4[B-]3(F)F)C(C)=C2)cc1

absorption maximum (in CC#N): 310 nm
absorption maximum (in CO): 310 nm
absorption maximum (in O): 308 nm
Compound: CN1CCN(CCCN2c3ccccc3Sc3ccc(C(F)(F)F)cc32)CC1

absorption maximum (in O): 420 nm
Compound: O=C(O)CCCCCn1c2ccccc2c(=O)c2cc(F)ccc21

absorption maximum (in CO): 785 nm
Compound: Cc1ccc(CN2/C(=C/C=C3\CCCC(/C=C/C4=[N+](Cc5ccc(C)cc5)c5ccccc5C4(C)C)=C3Cl)C(C)(C)c3ccccc32)cc1

absorption maximum (in ClCCl): 386 nm
Compound: FC(F)(F)c1ccccc1B1c2ccccc2Nc2ccccc21

absorption maximum (in C1CCCCC1): 305 nm
Compound: COc1ccc(C2=C(c3ccc(OC)cc3)C(C)(C)c3cc(-c4ccccc4)ccc32)cc1

absorption maximum (in ClCCl): 457 nm
Compound: Cc1cc(C)c(B2c3cc(C)ccc3N3c4ccc(C)cc4B(c4c(C)cc(C)cc4C)c4cc(C)cc2c43)c(C)c1

absorption maximum (in CC#N): 388 nm
absorption maximum (in ClCCl): 398 nm
Compound: Cn1c(=O)cc(C(=O)c2ccccc2)c2sc(-c3ccc(C(F)(F)F)cc3)cc21

absorption maximum (in O): 258 nm
Compound: O=C(O)c1cc(O)c(O)c(O)c1

absorption maximum (in ClCCl): 400 nm
Compound: c1ccc2c(c1)ccc1ccc3c(c12)-c1c(ccc2ccc4ccccc4c12)C3

absorption maximum (in CS(C)=O): 622 nm
Compound: F[B-]1(F)C2=C(C=c3c4cccc5cccc(c54)n31)c1cccc3ccc[n+]2c13

absorption maximum (in C1CCOC1): 360 nm
Compound: N#Cc1c(N2CCCCC2)cc(-c2ccccc2)c2c1-c1ccccc1C2

absorption maximum (in ClCCl): 400 nm
Compound: [O-][n+]1c(/C=C/C=C/c2ccccc2)nc(N2CCOCC2)c2c1CCCC2

absorption maximum (in CC#N): 298 nm
Compound: Cc1sc(Cl)cc1-c1nc(-c2ccccc2)[nH]c1-c1cc(Cl)sc1C

absorption maximum (in ClCCl): 290 nm
Compound: O=P1(c2ccccc2)c2ccccc2-n2cccc21 (stereo unspecified)

absorption maximum (in CC#N): 388 nm
Compound: Cc1ccc2nc3[nH]c(=O)[nH]c(=O)c3nc2c1C

absorption maximum (in ClCCl): 395 nm
Compound: CC(C)(C)NC(=O)c1ccc(C(=O)NC(C)(C)C)c2c1c1c3ccc(Cl)cc3c3cc(Cl)ccc3c1c1c3ccc(Cl)cc3c3cc(Cl)ccc3c21
